Assay [1] addresses T1, 2-5A-dependent ribonuclease (Mus musculus, UniProt Q05921).
T1 sequence (Q05921 whole entry): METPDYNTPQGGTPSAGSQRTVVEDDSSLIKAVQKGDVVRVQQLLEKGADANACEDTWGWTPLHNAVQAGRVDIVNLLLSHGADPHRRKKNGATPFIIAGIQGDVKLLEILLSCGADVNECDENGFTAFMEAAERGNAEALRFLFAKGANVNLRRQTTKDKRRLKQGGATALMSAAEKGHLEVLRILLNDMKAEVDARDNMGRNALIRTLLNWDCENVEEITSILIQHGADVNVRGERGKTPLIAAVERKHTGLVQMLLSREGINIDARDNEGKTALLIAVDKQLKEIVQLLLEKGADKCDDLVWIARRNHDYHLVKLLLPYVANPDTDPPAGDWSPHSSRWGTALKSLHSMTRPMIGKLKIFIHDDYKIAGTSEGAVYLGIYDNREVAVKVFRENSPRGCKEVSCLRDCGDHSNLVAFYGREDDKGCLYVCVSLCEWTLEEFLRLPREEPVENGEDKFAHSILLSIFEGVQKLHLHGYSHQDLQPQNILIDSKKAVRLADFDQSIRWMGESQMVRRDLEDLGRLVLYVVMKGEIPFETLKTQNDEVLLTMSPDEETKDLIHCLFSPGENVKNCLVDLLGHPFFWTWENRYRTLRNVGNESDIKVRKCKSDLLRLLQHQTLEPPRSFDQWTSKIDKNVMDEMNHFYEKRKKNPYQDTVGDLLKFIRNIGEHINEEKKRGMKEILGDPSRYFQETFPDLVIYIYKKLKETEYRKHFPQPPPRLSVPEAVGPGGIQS
Nature of the assay: Displacement of [125I]-labeled 2-5A from 2-5A dependent Ribonuclease L (RNase L) of mouse liver.

In assay [2] the target is T2, 2-5A-dependent ribonuclease (Mus musculus) (UniProt Q05921).
T2 sequence (whole entry): T1 sequence (Q05921 whole entry)
Nature of the assay: Relative displacement of [125I]-labeled 2-5A from Ribonuclease L of mouse liver compared to pApApA.

This note sets out measurements from ChEMBL document CHEMBL1144931, “Synthesis, characterization, and biological properties of 8-azido- and 8-amino-substituted 2',5'-oligoadenylates” (J Med Chem, 2003).

A value given as a limit tells only on which side of the number the result lay.

With `[N-]=[N+]=Nc1nc2c(N)ncnc2n1C1O[C@H](COP(=O)(O)O[C@H]2C(n3c(N=[N+]=[N-])nc4c(N)ncnc43)OC(COP(=O)(O)O[C@H]3C(n4c(N=[N+]=[N-])nc5c(N)ncnc54)O[C@H](CO)[C@H]3O)[C@H]2O)[C@@H](O)[C@H]1O` (stereo partly specified), the IC50 in assay [1] was 70 nM. The same compound displayed a Relative activity in assay [2] of 0.6.

Compound `[N-]=[N+]=Nc1nc2c(N)ncnc2n1C1O[C@H](COP(=O)(O)O[C@H]2C(n3c(N=[N+]=[N-])nc4c(N)ncnc43)O[C@H](COP(=O)(O)O)[C@H]2O)[C@@H](O)[C@H]1O` (stereo partly specified) showed an IC50 in assay [1] of 5000 nM. This compound had a Relative activity in assay [2] of 0.0008.

On to `[N-]=[N+]=Nc1nc2c(N)ncnc2n1[C@@H]1O[C@H](COP(=O)(O)O[C@@H]2[C@H](O)[C@@H](COP(=O)(O)O[C@@H]3[C@H](O)[C@@H](COP(=O)(O)O[C@@H]4[C@H](O)[C@@H](CO)O[C@H]4n4c(N=[N+]=[N-])nc5c(N)ncnc54)O[C@H]3n3c(N=[N+]=[N-])nc4c(N)ncnc43)O[C@H]2n2c(N=[N+]=[N-])nc3c(N)ncnc32)[C@@H](O)[C@H]1O`, for which, in assay [1], the IC50 was 50 nM. For the same compound, in assay [2], the Relative activity worked out at 0.8.

The compound `Nc1ncnc2c1nc(N)n2[C@@H]1O[C@H](COP(=O)(O)O[C@@H]2[C@H](O)[C@@H](COP(=O)(O)O[C@@H]3[C@H](O)[C@@H](CO)O[C@H]3n3c(N)nc4c(N)ncnc43)O[C@H]2n2c(N)nc3c(N)ncnc32)[C@@H](O)[C@H]1O` had a half-maximal inhibitory concentration (IC50) in assay [1] greater than 10000 nM. In assay [2], the Relative activity was less than 0.0004.

For the compound `[N-]=[N+]=Nc1nc2c(N)ncnc2n1[C@@H]1O[C@H](COP(=O)(O)O[C@@H]2[C@H](O)[C@@H](COP(=O)(O)O[C@@H]3[C@H](O)[C@@H](COP(=O)(O)O[C@@H]4[C@H](O)[C@@H](COP(=O)(O)O)O[C@H]4n4c(N=[N+]=[N-])nc5c(N)ncnc54)O[C@H]3n3c(N=[N+]=[N-])nc4c(N)ncnc43)O[C@H]2n2c(N=[N+]=[N-])nc3c(N)ncnc32)[C@@H](O)[C@H]1O`, the IC50 in assay [1] came to 2 nM. The compound further had a Relative activity in assay [2] of 2.

`[N-]=[N+]=Nc1nc2c(N)ncnc2n1C1O[C@H](COP(=O)(O)O[C@H]2C(n3c(N=[N+]=[N-])nc4c(N)ncnc43)O[C@H](CO)[C@H]2O)[C@@H](O)[C@H]1O` (stereo partly specified) returned an IC50 in assay [1] greater than 10000 nM. In assay [2], this compound returned a Relative activity of less than 0.0004.

As to `Nc1ncnc2c1nc(N)n2[C@@H]1O[C@H](COP(=O)(O)O[C@@H]2[C@H](O)[C@@H](COP(=O)(O)O[C@@H]3[C@H](O)[C@@H](COP(=O)(O)O[C@@H]4[C@H](O)[C@@H](CO)O[C@H]4n4c(N)nc5c(N)ncnc54)O[C@H]3n3c(N)nc4c(N)ncnc43)O[C@H]2n2c(N)nc3c(N)ncnc32)[C@@H](O)[C@H]1O`, the IC50 in assay [1] is 1000 nM. The same compound returned a Relative activity in assay [2] of 0.004.

The compound `Nc1ncnc2c1ncn2[C@@H]1O[C@H](COP(=O)(O)O[C@@H]2[C@H](O)[C@@H](COP(=O)(O)O[C@@H]3[C@H](O)[C@@H](COP(=O)(O)OP(=O)(O)OP(=O)(O)O)O[C@H]3n3cnc4c(N)ncnc43)O[C@H]2n2cnc3c(N)ncnc32)[C@@H](O)[C@H]1O` returned a Relative activity in assay [2] of 1.3.

As to `Nc1ncnc2c1nc(N)n2C1O[C@H](COP(=O)(O)O[C@H]2C(n3c(N)nc4c(N)ncnc43)O[C@H](COP(=O)(O)O[C@H]3C(n4c(N)nc5c(N)ncnc54)O[C@H](COP(=O)(O)O[C@H]4C(n5c(N)nc6c(N)ncnc65)O[C@H](COP(=O)(O)O)[C@H]4O)[C@H]3O)[C@H]2O)[C@@H](O)[C@H]1O` (stereo partly specified), the IC50 in assay [1] worked out at 500 nM. The compound further came in with a Relative activity in assay [2] of 0.008.

With `Nc1ncnc2c1ncn2[C@@H]1O[C@H](CO[P@](=O)(O)O[C@@H]2[C@H](O)[C@@H](CO[P@](=O)(O)O[C@@H]3[C@H](O)[C@@H](CO[P@](=O)(O)O[P@@](=O)(O)OP(=O)(O)O)O[C@H]3n3cnc4c(N)ncnc43)O[C@H]2n2cnc3c(N)ncnc32)[C@@H](O)[C@H]1O`, the IC50 in assay [1] stood at 3 nM.

Compound `Nc1ncnc2c1nc(N)n2C1O[C@H](COP(=O)(O)O[C@H]2C(n3c(N)nc4c(N)ncnc43)O[C@H](COP(=O)(O)O)[C@H]2O)[C@@H](O)[C@H]1O` (stereo partly specified) displayed an IC50 in assay [1] greater than 10000 nM. Further, the Relative activity in assay [2] is less than 0.0004.

As to `[N-]=[N+]=Nc1nc2c(N)ncnc2n1C1OC(COP(=O)(O)O)C(O)C1OP(=O)(O)OCC1OC(n2c(N=[N+]=[N-])nc3c(N)ncnc32)C(OP(=O)(O)OC[C@H]2OC(n3c(N=[N+]=[N-])nc4c(N)ncnc43)[C@H](O)[C@@H]2O)C1O` (stereo partly specified), the IC50 in assay [1] is 2 nM. Moreover, the Relative activity in assay [2] was found to be 2.

Consider `Nc1ncnc2c1nc(N)n2[C@@H]1O[C@H](COP(=O)(O)O[C@@H]2[C@H](O)[C@@H](COP(=O)(O)O[C@@H]3[C@H](O)[C@@H](COP(=O)(O)O)O[C@H]3n3c(N)nc4c(N)ncnc43)O[C@H]2n2c(N)nc3c(N)ncnc32)[C@@H](O)[C@H]1O`, for which, in assay [1], the IC50 was greater than 10000 nM. Also, in assay [2], the Relative activity was less than 0.0004.

For the compound `Nc1ncnc2c1nc(N)n2C1O[C@H](COP(=O)(O)O[C@H]2C(n3c(N)nc4c(N)ncnc43)O[C@H](CO)[C@H]2O)[C@@H](O)[C@H]1O` (stereo partly specified), the IC50 in assay [1] is greater than 10000 nM. In assay [2], this compound returned a Relative activity of less than 0.0004.
